Measured values: PubChem BioAssay AID2305 (GlaxoSmithKline (GSK), 2010)

These compounds were tested on P. falciparum 3D7 growth, pLDH absorbance (assay: blood-stage malaria parasite growth potency – strain 3D7, dose response (AID 2305)).
`COc1ccccc1CCNc1nc(C)cc(N[C@@H](Cc2ccccc2)C(=O)NCc2cccc(F)c2)n1` gave an IC50 of 870 nM. In the case of `OCCN1CCN(c2nc(Nc3cccc(F)c3)c3cnn(-c4ccccc4)c3n2)CC1`, the IC50 is reported as 830 nM. For `O=C(Nc1ccc(-c2csc(-c3nc4ccccc4[nH]3)c2)cc1)Nc1ccsc1`, the IC50 was 550 nM. `CNS(=O)(=O)c1ccc2c(c1)nc(C1CCN(CC3CCC(NC(=O)/C=C/c4ccc(Cl)c(Cl)c4)CC3)CC1)n2C` (stereo unspecified) showed an IC50 of 670 nM. `O=C(Nc1ccc(-c2ccc(CN3CCNCC3)cc2)cc1)c1cccc(Cl)c1` gave an IC50 of 890 nM. In the case of `CC1CCCN(c2ccc(NC(=O)c3cccs3)cc2[N+](=O)[O-])C1` (stereo unspecified), the IC50 is reported as 670 nM. Compound `Cc1c(N=O)cc(C(C)(C)C)c(O)c1C(=O)Nc1ccc([N+](=O)[O-])cc1Cl` has an IC50 of 770 nM. `Cc1cnc2cc3c(cc2c1N1CCN(C)CC1)NCC3` gave an IC50 of 780 nM. `Cc1[nH]c(C)c(-c2ccc(OCc3ccc(OC(F)(F)F)cc3)nc2)c(=O)c1Cl` was tested, and the IC50 was 70 nM. Work on `CCc1sc(-c2ccc(C(C)(C)C)cc2)nc1C(=O)NCCCN1CCCC1=O` yielded an IC50 of 990 nM. In the case of `O=C(/C=C/c1ccc(Cl)c(Cl)c1)NCCCCCN1CC[C@H](NC(=O)c2ccc3c(c2)OCO3)C1`, the IC50 is reported as 940 nM. Compound `c1ccc(COc2ccc(Nc3ncnc4cnc(-c5ccc(CN6CCCCC6)o5)cc34)cc2)cc1` has an IC50 of 970 nM. `Cc1c(CCc2cccc(F)c2F)[nH]c2ccccc2c1=O` was tested, and the IC50 was 820 nM. Compound `CCc1ccc(S(=O)(=O)Nc2cccc(CCN3CCC(N4CCCCC4)CC3)c2)cc1` has an IC50 of 900 nM. `CCOc1cc(CC)ccc1C1CCN(CCN2CCC(NC(=O)c3ccc(-c4ccc(C#N)cc4)cc3)CC2)CC1` gave an IC50 of 610 nM. `CCc1ccc(N2C(N)=NC(N)=NC2(C)C)cc1` gave an IC50 of 10 nM. In the case of `O=C(Nc1ccc(OC2CCN(Cc3ccccc3)C2)c(Cl)c1)c1ccc(F)cc1` (stereo unspecified), the IC50 is reported as 790 nM. In the case of `CCS(=O)(=O)c1ccc(OC)c(Nc2nccc(-c3c(-c4cccc(NC(=O)c5c(F)cccc5F)c4)nn4ncccc34)n2)c1`, the IC50 is reported as 1030 nM. For `Cc1ccc(-n2ncc(C(=O)Nc3cc(Cl)cc(Cl)c3)c2C2CCNCC2)cc1C`, the IC50 was 550 nM. With `Cc1noc(-c2cccs2)c1C(=O)NC(C)c1cccc2ccccc12` (stereo unspecified) the IC50 was 130 nM. `CC(C)Sc1nc2c(c(=O)n1Cc1ccco1)C1(CCCC1)Cc1ccccc1-2` gave an IC50 of 1630 nM. `Oc1ccc(CCCNc2nc(NCc3ccccc3-c3ccccc3)nc(N3CCNCC3)n2)cc1` showed an IC50 of 710 nM. Compound `Cc1ccc2c(Cc3cnc(N)nc3N)cc(C)c(N)c2n1` has an IC50 of 1420 nM. `Cn1nc(-c2ccccc2F)c2cc(C(=O)Nc3cccnc3)sc21` was tested, and the IC50 was 810 nM. With `CC(C)(C)SCC(O)Cn1c2ccc(Br)cc2c2cc(Br)ccc21` (stereo unspecified) the IC50 was 1000 nM. Compound `N#Cc1ccc(N2CCN(Cc3ccc(-c4ccc(-c5nc6ccc(C(F)(F)F)cc6[nH]5)cc4)cc3)CC2)nc1` has an IC50 of 960 nM. With `CCOc1ccc2c(NN=Cc3cc(OC)c(OC)cc3OC)cc(C)nc2c1` the IC50 was 1000 nM. Work on `CC(=O)Oc1ccc(C(=O)Oc2ccccc2C#CC#N)cc1OC(C)=O` yielded an IC50 of 320 nM. Compound `COc1ccc2nccc([C@@H](O)CN3CCC(NC(=O)c4[nH]c5ccccc5c4-c4ccccc4)CC3)c2c1` has an IC50 of 900 nM. `COc1ccc(CNc2ncnc3c2[nH]c2ccc(F)cc23)cc1` showed an IC50 of 980 nM. Compound `O=C(Nc1nc2cc(S(=O)(=O)NCCc3cccc(F)c3)ccc2n1CCCn1ccnc1)c1ccc(Cl)cc1` has an IC50 of 1270 nM. For `Cc1cc(OCCCN2CCC(NS(=O)(=O)c3ccc(C(F)(F)F)cc3)CC2)c2ccccc2n1`, the IC50 was 1220 nM. `CCOc1ccc(C(=O)Nc2ccc(-c3nc4ccccc4[nH]3)cc2)cc1[N+](=O)[O-]` showed an IC50 of 590 nM. `Clc1cccc(C=NNc2ccnc3ccccc23)c1` was tested, and the IC50 was 850 nM. Compound `COc1ccc(NC(=O)[C@H](CC(C)C)Nc2cc(C)nc(NCc3cccc(C)c3)n2)cc1` has an IC50 of 1020 nM. With `NC(N)=NC(=O)Nc1ccc(Cl)c([N+](=O)[O-])c1` the IC50 was 760 nM. Compound `CS(=O)(=O)c1ccc(CNCc2ccc(-c3ccc(-c4nc5ccc(C(F)(F)F)cc5[nH]4)s3)cc2)cc1` has an IC50 of 160 nM. `CC1(C)N=C(NC(=O)c2cc([N+](=O)[O-])cc([N+](=O)[O-])c2)N=C(N)N1OCc1cccc2ccccc12` was tested, and the IC50 was 10 nM. Work on `Fc1ccc2nc(-c3ccc(-c4ccc(CNCC5CCCO5)cc4)cc3)[nH]c2c1` (stereo unspecified) yielded an IC50 of 440 nM. `CCOc1ccc(-c2nonc2NC(=O)c2ccc(OC)cc2)cc1OCC` gave an IC50 of 820 nM. `CN(Cc1cnc2nc(N)nc(N)c2n1)c1ccc(C(=O)N[C@H](CCC(=O)O)C(=O)O)cc1` showed an IC50 of 100 nM. `COc1ccc2c(=O)c(C3CCC(c4ccc(Cl)cc4)CC3)c(C)[nH]c2c1` (stereo unspecified) gave an IC50 of 650 nM. In the case of `O=C(NCCN1CCOCC1)c1ccc(CNC(=O)c2ccc(O)c(-c3ccc(Cl)c(Cl)c3)c2)cc1`, the IC50 is reported as 930 nM. In the case of `OC1CCC(Nc2ccc3ncc(-c4ccc5ccccc5c4)n3n2)CC1` (stereo unspecified), the IC50 is reported as 980 nM. With `CCOc1ccc(-c2nonc2NC(=O)c2ccc(Cl)cc2)cc1OCC` the IC50 was 990 nM. `COc1ccc2c(c1)Nc1ccc(Cl)cc1C2N` (stereo unspecified) was tested, and the IC50 was 300 nM. `CCOc1ccc(C(=O)Nc2cc(Br)c3c(c2)CNCC3)cc1Cl` gave an IC50 of 1040 nM. In the case of `COc1ccc(Cc2c(N)nc3nc(N)nc(N)c3c2C)cc1`, the IC50 is reported as 190 nM. With `Cc1ccc(C)c(-n2c(SCC(=O)Nc3ccc(C(N)=O)cc3)nnc2-c2cccc(Cl)c2)c1` the IC50 was 840 nM. Compound `CCCC(C)n1ccc2c3c(N)nc(N)nc3ccc21` (stereo unspecified) has an IC50 of 50 nM. Work on `O=C(Cn1c(CCc2cccc(F)c2F)cc(=O)c2ccccc21)N(CCN1CCCC1)Cc1ccc(-c2ccc(C(F)(F)F)cc2)cc1` yielded an IC50 of 860 nM. `Cc1cc(NC(=O)Nc2ccc3ccn(C)c3c2)c2ccccc2n1` gave an IC50 of 210 nM. `CCCNc1nc(Nc2ccccc2C)nc2ccccc12` was tested, and the IC50 was 890 nM. In the case of `O=C(NCc1ccc(Cl)cc1)c1ccc(CN2CCCN(CC3CCCCC3)CC2)cc1`, the IC50 is reported as 1700 nM. `COc1ccc(C(=O)Nc2ccc3nc(N4CCCCC4)cc(C)c3c2)cc1[N+](=O)[O-]` gave an IC50 of 780 nM. In the case of `Cc1ccc2nc(/N=C(\N)NC(=O)NC3CCCCC3)nc(C)c2c1`, the IC50 is reported as 620 nM. For `N=C(N)c1ccc2[nH]c(-c3cc4cc(C(=N)N)ccc4o3)cc2c1`, the IC50 was 180 nM. `CN1CCCN(Cc2cccc(-c3cccc(NC(=O)c4cccc(Cl)c4)c3)c2)CC1` was tested, and the IC50 was 890 nM. For `O=C(/C=C/c1ccc(-c2nc3cc(F)c(F)cc3[nH]2)cc1)NCc1ccc(Cl)c(Cl)c1`, the IC50 was 940 nM. `CC(=O)C1(c2ccccc2)CCN(CCC2(c3ccc(Cl)c(Cl)c3)CN(C(=O)c3cccc(Cl)c3)CCO2)CC1` (stereo unspecified) was tested, and the IC50 was 850 nM. `COc1ccc2nccc([C@@H](O)CN3CCC(NCc4cc5oc(=O)n(C)c5cc4F)CC3)c2c1` was tested, and the IC50 was 660 nM. In the case of `Cc1ccc(O)cc1Nc1ccnc2cc(-c3csc(CN(C)CCN(C)C)n3)ccc12`, the IC50 is reported as 790 nM. Compound `O=C(C=Cc1ccc(Cl)c(Cl)c1)NCCCCCN1CCCC(CCCNC(=O)c2cccs2)C1` (stereo unspecified) has an IC50 of 1300 nM. `O=C(/C=C/c1ccc(Cl)c(Cl)c1)NCCC(CN1CCC(c2c[nH]c3ccccc23)CC1)c1ccccc1` (stereo unspecified) showed an IC50 of 570 nM. Compound `O=C(Nc1ccc(N2CCN(Cc3ccccc3)CC2)cc1)c1cccs1` has an IC50 of 770 nM. `CS(=O)(=O)Nc1cccc(-c2cnc3[nH]cc(-c4ccc(CCC(=O)O)cc4)c3c2)c1` gave an IC50 of 1060 nM. `O=C(C1CCN(c2nnnn2-c2ccccc2)CC1)N1CCc2ccccc2C1` was tested, and the IC50 was 710 nM. `COc1cc2nc(NCCN3CCOCC3)n3nc(-c4ccccc4)nc3c2cc1OC` was tested, and the IC50 was 220 nM. Work on `Cc1cc(-c2ccnc(Nc3cccc(C#N)c3)n2)cc(C)c1O` yielded an IC50 of 920 nM. `COc1ccc2nc(/C=C/c3cccc4ccc(C)nc34)[nH]c2c1` was tested, and the IC50 was 790 nM. `CC(C)CN1CCC(N(C)c2cc(NC(=O)c3cccc(F)c3)ccn2)CC1` gave an IC50 of 850 nM. `O=C(Nc1cccc(F)c1)NC1CCN(c2ccnc3cc(Cl)ccc23)CC1` gave an IC50 of 610 nM. `C=C(C)Cn1cc(C2CCN(CCCCNC(=O)c3sc(-c4ccc(Cl)cc4Cl)nc3CO)CC2)c2ccccc21` was tested, and the IC50 was 1150 nM. With `O=c1cc(NCCCNCc2ccc(Cl)c(Cl)c2)[nH]c2ccc(C(F)(F)F)cc12` the IC50 was 520 nM. In the case of `Cc1cc(NC(=O)Nc2ccc(C#N)cc2)c2ccccc2n1`, the IC50 is reported as 570 nM. `CC1(CCN2CCC(c3c[nH]c4cnccc34)CC2)CCCc2c(Br)cccc2C1=O` (stereo unspecified) showed an IC50 of 200 nM. For `Cc1[nH]c(C)c(-c2ccc(Oc3ccc(Cl)c(Cl)c3)cc2)c(=O)c1Cl`, the IC50 was 110 nM. `COc1cccc(C(=O)Nc2ccc(-c3nc4ccccc4[nH]3)cc2)c1` was tested, and the IC50 was 800 nM. For `CC(C)C1=NCc2ccc([N+](=O)[O-])cc2C(=O)N1`, the IC50 was 150 nM. Compound `Cc1cc(I)ccc1Nc1nc2nonc2nc1Nc1ccc(I)cc1C` has an IC50 of 510 nM. `Cc1cccc2[nH]c(-c3ccc(-c4cccc(CN5CCC(CO)CC5)c4)s3)nc12` showed an IC50 of 940 nM. For `COc1cc(Cc2cnc(N)nc2N)ccc1OCc1ccc(NC(C)=O)cc1`, the IC50 was 370 nM. `Fc1ccc2c(NN=Cc3ccccc3)ccnc2c1` gave an IC50 of 740 nM. `CCCc1cc(Cc2cnc(N)nc2N)c2cccnc2c1OC` was tested, and the IC50 was 670 nM. `O=S(=O)(NCCN1CCCC1)c1ccc(-c2ccc(CNCc3ccccc3)cc2)s1` gave an IC50 of 850 nM. `CCOc1ccc2ccccc2c1C(=O)Nc1cc(C)nn1-c1nc(C)cc(=O)[nH]1` showed an IC50 of 1010 nM. Work on `COc1cc2sc(=NC(=O)c3cccc([N+](=O)[O-])c3)n(C)c2cc1OC` yielded an IC50 of 720 nM. `CCn1c(Sc2ccc([N+](=O)[O-])c(C#N)c2)nnc1-c1cccc(Cl)c1` gave an IC50 of 870 nM. Compound `Cc1cc(NC(=O)NCCN2CCC(NC(=O)c3ccc(C(F)(F)F)cc3)CC2)c2ccccc2n1` has an IC50 of 410 nM. In the case of `OC(CNc1ccnc(Nc2ccc(Cl)cc2)n1)c1cccc(C(F)(F)F)c1` (stereo unspecified), the IC50 is reported as 680 nM. With `O=C(c1cc2nc3c(c(C(F)(F)F)n2n1)CCc1ccccc1-3)N1CCN2CCCC2C1` (stereo unspecified) the IC50 was 950 nM. `CCN(CC)CCn1c(=N)n(CC(O)c2ccc(Cl)c(Cl)c2)c2ccccc21` (stereo unspecified) showed an IC50 of 790 nM. Work on `CCN(CC)CCNc1ccnc2[nH]c3ccc([N+](=O)[O-])cc3c12` yielded an IC50 of 200 nM. Compound `COC(=O)/C=C/c1ccc(CC(C)NCC(O)c2cccc(C(F)(F)F)c2)cc1` (stereo unspecified) has an IC50 of 770 nM. For `O=C(NCc1ccc(Cl)cc1)c1ccc(C(=O)NCC2CCCN2CC2CCCCC2)cc1` (stereo unspecified), the IC50 was 850 nM. In the case of `CC(C)C[C@H](NC(=O)c1ccc(OCCN2CCOCC2)cc1)C(=O)N[C@H](/C=N/N(C)C(=O)c1ccccc1)CCc1ccccc1`, the IC50 is reported as 270 nM. `O=C(Nc1cccc(-c2nn3ncccc3c2-c2ccnc(Nc3cccc(-c4cnco4)c3)n2)c1)c1c(F)cccc1F` showed an IC50 of 170 nM. `Cc1cccc2[nH]c(-c3ccc(-c4ccc(NC(=O)c5cncn5C)cc4)s3)nc12` gave an IC50 of 670 nM. Compound `CCn1c(Cc2ccccc2)nnc1SCC(=O)N1c2ccccc2Sc2ccccc21` has an IC50 of 590 nM. `CCOc1cc(C)ccc1C1CCN(CCCCNC(=O)c2coc(-c3ccc(Cl)cc3)c2)CC1` gave an IC50 of 910 nM. `COc1ccc(-c2ccc(NC(=O)c3cccc(F)c3)cc2)cc1CN1CCCN(C)CC1` gave an IC50 of 670 nM.
